Source: patent US9527869B2, “Indolizine derivatives as phoshoinositide 3-kinases inhibitors” (CHIESI FARMACEUTICI S.P.A., priority 2014, dated 2016)

Assays:
Type in all cases: biochemical
PI3Kα = biological target: T1, PI3Kα (Homo sapiens, UniProt P42336); test: In vitro determination of the PI3K enzyme inhibitory activity in the cell free assay (ADP-Glo Kinase Assay), PI3Kα; details: ATP 50 μM, read-out: PI3K alpha inhibition
T1 construct: purchased Millipore Ltd (Billerica, Mass.)
Method in brief: (§1)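 Human recombinant PI3K isoforms with PI/PS lipid substrates (50 μM in 2× buffer, Tris pH 7.5, DTT) were run 60 min at room temperature. Final ATP was 50 μM for α, 100 μM for β, 30 μM for γ and 80 μM for δ. ADP formation was read by ADP-Glo luminescence, and IC50 came from a four-parameter logistic fit.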

PI3Kβ = biological target: T2, PI3Kβ (Homo sapiens, UniProt P42338); test: In vitro determination of the PI3K enzyme inhibitory activity in the cell free assay (ADP-Glo Kinase Assay), PI3Kβ; details: ATP 100 μM, read-out: PI3K beta inhibition
T2 construct: purchased Millipore Ltd (Billerica, Mass.)
Method in brief: as §1

PI3Kγ = biological target: T3, PI3Kγ (Homo sapiens, UniProt P48736); test: In vitro determination of the PI3K enzyme inhibitory activity in the cell free assay (ADP-Glo Kinase Assay), PI3Kγ; details: ATP 30 μM, read-out: PI3K gamma inhibition
T3 construct: purchased Millipore Ltd (Billerica, Mass.)
Method in brief: as §1

PI3Kδ = biological target: T4, PI3Kδ (Homo sapiens, UniProt O00329); test: In vitro determination of the PI3K enzyme inhibitory activity in the cell free assay (ADP-Glo Kinase Assay), PI3Kδ; details: ATP 80 μM, read-out: PI3K delta inhibition
T4 construct: purchased Millipore Ltd (Billerica, Mass.)
Method in brief: as §1

T1 sequence (P42336 whole entry): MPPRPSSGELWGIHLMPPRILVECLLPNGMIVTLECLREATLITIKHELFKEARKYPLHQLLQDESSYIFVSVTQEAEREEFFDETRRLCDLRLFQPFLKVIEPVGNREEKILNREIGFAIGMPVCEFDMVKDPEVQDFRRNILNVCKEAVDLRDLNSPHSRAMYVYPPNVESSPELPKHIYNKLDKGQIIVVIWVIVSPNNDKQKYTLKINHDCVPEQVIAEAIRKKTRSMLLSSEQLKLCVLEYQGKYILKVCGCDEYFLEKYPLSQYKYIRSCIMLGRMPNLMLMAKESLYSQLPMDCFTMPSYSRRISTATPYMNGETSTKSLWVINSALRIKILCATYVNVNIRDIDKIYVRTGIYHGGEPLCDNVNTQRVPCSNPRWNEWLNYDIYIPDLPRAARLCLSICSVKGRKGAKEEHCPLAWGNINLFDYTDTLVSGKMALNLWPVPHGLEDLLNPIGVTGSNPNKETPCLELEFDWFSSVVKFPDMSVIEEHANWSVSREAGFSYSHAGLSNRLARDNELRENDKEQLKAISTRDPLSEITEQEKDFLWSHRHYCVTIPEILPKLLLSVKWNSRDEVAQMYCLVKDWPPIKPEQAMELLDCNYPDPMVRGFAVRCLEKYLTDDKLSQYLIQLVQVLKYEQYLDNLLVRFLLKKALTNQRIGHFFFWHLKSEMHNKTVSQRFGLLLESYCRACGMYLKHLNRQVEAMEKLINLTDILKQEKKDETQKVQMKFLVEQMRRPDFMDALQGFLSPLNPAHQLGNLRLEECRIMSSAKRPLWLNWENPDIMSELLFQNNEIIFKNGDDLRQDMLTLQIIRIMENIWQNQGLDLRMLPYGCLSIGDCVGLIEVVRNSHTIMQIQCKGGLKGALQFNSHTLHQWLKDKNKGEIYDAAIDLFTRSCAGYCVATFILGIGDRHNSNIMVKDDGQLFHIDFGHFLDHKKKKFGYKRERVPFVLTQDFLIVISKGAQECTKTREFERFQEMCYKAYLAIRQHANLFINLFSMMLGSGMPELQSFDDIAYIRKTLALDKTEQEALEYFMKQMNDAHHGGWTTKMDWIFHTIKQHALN
T1 sequence (P27986 whole entry partner): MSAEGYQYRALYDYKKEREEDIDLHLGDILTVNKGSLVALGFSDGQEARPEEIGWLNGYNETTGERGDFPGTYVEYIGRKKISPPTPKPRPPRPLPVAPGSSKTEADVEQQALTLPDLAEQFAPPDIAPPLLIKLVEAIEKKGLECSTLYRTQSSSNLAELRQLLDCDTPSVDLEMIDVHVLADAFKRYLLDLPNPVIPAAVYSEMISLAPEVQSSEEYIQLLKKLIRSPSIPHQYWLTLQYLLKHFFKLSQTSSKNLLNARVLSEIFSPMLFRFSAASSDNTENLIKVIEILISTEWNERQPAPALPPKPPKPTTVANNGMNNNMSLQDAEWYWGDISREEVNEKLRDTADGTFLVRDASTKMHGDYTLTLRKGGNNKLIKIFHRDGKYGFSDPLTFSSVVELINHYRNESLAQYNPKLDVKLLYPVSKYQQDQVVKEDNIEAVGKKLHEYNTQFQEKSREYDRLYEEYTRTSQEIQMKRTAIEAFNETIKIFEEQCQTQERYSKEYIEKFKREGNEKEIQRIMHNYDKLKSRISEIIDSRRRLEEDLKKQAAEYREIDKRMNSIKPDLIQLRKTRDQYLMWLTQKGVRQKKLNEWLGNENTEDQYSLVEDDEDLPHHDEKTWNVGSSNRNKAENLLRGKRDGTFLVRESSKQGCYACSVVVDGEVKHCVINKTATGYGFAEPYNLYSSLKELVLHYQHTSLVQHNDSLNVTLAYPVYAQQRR
T2 sequence (P42338 whole entry): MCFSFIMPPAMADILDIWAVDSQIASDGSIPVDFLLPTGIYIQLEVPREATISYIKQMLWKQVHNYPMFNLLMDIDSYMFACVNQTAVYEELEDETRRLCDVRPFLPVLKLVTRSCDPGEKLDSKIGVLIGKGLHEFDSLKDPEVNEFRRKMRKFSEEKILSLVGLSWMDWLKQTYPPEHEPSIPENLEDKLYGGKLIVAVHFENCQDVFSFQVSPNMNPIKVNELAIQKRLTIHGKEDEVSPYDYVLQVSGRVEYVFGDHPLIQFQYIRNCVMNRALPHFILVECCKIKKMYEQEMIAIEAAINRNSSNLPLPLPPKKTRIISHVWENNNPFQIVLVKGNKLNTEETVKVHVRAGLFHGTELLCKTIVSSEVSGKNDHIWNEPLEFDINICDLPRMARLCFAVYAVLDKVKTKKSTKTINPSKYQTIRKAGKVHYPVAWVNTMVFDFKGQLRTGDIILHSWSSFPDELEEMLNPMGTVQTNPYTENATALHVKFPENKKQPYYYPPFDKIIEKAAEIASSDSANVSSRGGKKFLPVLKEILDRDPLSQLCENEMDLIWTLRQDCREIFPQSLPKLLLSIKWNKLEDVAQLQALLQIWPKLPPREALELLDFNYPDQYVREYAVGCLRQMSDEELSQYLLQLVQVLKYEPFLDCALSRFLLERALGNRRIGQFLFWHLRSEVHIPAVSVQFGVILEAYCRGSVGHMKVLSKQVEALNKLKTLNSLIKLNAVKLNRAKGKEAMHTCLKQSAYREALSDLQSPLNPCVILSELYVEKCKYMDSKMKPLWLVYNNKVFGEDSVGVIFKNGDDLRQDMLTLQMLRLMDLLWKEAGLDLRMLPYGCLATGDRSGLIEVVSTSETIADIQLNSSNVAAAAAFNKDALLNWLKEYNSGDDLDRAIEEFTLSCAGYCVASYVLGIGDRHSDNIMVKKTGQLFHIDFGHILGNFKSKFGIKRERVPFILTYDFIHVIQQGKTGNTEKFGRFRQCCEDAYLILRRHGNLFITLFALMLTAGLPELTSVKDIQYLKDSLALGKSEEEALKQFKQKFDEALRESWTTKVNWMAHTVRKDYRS
T2 sequence (P27986 whole entry partner): as the sequence (P27986 whole entry partner) above
T4 sequence (O00329 whole entry): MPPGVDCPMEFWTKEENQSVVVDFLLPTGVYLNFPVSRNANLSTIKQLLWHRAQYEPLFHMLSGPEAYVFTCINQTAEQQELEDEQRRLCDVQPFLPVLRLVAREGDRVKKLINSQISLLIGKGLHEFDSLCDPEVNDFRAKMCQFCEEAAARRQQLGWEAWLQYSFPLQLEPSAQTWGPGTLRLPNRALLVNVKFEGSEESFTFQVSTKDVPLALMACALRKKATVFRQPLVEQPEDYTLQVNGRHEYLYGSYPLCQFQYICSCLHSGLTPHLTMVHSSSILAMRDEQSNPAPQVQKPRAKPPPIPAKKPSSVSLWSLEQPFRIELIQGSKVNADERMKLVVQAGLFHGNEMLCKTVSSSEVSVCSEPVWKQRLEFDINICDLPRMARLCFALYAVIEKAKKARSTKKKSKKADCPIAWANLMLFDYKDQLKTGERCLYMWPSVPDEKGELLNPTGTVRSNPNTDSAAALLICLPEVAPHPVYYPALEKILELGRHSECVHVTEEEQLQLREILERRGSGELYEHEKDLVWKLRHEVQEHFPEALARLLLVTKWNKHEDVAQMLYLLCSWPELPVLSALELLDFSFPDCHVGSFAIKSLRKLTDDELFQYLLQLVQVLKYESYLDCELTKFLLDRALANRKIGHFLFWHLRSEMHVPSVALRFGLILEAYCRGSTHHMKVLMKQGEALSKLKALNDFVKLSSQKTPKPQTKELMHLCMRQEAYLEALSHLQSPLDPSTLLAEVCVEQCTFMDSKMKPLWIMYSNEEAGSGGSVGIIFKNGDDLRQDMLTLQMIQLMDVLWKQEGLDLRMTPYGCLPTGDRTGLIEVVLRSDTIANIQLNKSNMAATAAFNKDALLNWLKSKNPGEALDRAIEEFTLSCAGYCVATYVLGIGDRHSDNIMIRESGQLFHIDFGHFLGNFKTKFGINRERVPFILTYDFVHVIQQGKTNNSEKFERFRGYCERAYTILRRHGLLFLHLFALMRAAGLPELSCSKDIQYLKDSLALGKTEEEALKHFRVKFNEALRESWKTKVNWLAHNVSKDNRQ
T4 sequence (P27986 whole entry partner): as the sequence (P27986 whole entry partner) above
T3 sequence (P48736 whole entry): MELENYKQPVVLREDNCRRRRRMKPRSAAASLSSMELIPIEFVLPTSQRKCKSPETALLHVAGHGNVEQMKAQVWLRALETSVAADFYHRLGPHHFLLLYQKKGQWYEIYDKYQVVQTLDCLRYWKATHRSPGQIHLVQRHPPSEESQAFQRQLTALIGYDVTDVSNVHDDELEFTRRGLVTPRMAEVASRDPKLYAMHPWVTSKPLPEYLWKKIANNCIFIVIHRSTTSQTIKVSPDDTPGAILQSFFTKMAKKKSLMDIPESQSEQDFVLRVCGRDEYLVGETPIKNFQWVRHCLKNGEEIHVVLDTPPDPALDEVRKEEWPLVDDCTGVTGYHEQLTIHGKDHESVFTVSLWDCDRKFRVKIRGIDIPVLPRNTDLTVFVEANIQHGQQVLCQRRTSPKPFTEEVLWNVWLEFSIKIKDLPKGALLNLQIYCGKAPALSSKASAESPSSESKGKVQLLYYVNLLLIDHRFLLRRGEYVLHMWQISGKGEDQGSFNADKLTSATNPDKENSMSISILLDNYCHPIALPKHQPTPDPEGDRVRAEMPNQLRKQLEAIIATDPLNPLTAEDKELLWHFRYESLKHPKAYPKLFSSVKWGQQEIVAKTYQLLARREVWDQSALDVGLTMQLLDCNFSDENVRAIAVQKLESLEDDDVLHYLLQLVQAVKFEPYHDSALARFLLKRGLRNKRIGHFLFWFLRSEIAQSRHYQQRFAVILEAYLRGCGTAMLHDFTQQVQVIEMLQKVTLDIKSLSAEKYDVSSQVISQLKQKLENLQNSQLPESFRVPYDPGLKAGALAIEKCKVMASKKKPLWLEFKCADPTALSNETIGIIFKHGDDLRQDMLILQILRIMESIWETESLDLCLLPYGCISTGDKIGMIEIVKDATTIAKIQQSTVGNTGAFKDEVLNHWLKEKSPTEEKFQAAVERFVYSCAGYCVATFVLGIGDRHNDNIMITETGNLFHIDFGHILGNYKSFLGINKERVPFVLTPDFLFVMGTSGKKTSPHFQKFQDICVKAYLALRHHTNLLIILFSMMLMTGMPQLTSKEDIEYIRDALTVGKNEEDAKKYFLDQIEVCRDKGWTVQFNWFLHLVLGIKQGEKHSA

Compound | IC50 (PI3Kα) [nM] | IC50 (PI3Kβ) [nM] | IC50 (PI3Kγ) [nM] | IC50 (PI3Kδ) [nM]
CC(c1cc2ccccn2c1CN1C[C@H]2CN(C)C[C@H]2C1)n1nc(-c2cc(O)cc(F)c2)c2c(N)ncnc21 (stereo partly drawn) [Example 145, 3-{1-[1-(3-{[(3aR,6aS)-5-methyl-octahydropyrrolo[3,4-c]pyrrol-2-yl]methyl}indolizin-2-yl)ethyl]-4-amino-1H-pyrazolo[3,4-d]pyrimidin-3-yl}-5-fluorophenol] | 10 to 1000 | 10 to 1000 | 10 to 1000 | 10 to 1000
CC(c1cc2ccccn2c1-c1ccn(CCN(C)C)n1)n1nc(-c2cc(O)cc(F)c2)c2c(N)ncnc21 (centres unmarked) [Example 147, 3-{4-amino-1-[1-(3-{1-[2-(dimethylamino)-ethyl]-1H-pyrazol-3-yl}indolizin-2-yl)-ethyl]-1H-pyrazolo[3,4-d]pyrimidin-3-yl}-5-fluorophenol] | 10 to 1000 | 10 to 1000 | > 1000 | < 10
CC(c1cc2ccccn2c1-c1ccn(CCN2CCN(C)CC2)n1)n1nc(-c2cc(O)cc(F)c2)c2c(N)ncnc21 (centres unmarked) [Example 148, 3-{4-amino-1-[1-(3-{1-[2-(4-methylpiperazin-1-yl)ethyl]-1H-pyrazol-3-yl}indolizin-2-yl)-ethyl]-1H-pyrazolo[3,4-d]pyrimidin-3-yl}-5-fluorophenol] | 10 to 1000 | 10 to 1000 | 10 to 1000 | < 10
CC(c1cc2ccccn2c1-c1ccn(CCN(CCO)CCO)n1)n1nc(-c2cc(O)cc(F)c2)c2c(N)ncnc21 (centres unmarked) [Example 149, 3-(4-amino-1-{1-[3-(1-{2-[bis(2-hydroxyethyl)amino]ethyl}-1H-pyrazol-3-yl)indolizin-2-yl]ethyl}-1H-pyrazolo[3,4-d]pyrimidin-3-yl)-5-fluorophenol] | > 1000 | 10 to 1000 | 10 to 1000 | < 10
CC(c1cc2ccccn2c1-c1ccn(CCN2CCOCC2)n1)n1nc(-c2cc(O)cc(F)c2)c2c(N)ncnc21 (centres unmarked) [Example 150, 3-{4-amino-1-[1-(3-{1-[2-(morpholin-4-yl)ethyl]-1H-pyrazol-3-yl}indolizin-2-yl)ethyl]-1H-pyrazolo-[3,4-d]pyrimidin-3-yl}-5-fluorophenol] | > 1000 | 10 to 1000 | 10 to 1000 | < 10
